Consider 29 molecules from the supplement of paper PMC11003180.

Common to all, as to experiment: drug sensitivity score (DSS) from 5-dose viability curve (DSS (area-based score, 0 = no response)); higher = more sensitive (stronger viability inhibition); extreme values may be limits of the assay
The test system of experiment [1] is MDCK wild-type + doxycycline. As to conditions: doxycycline: 10 ng/mL; 72 h. In a few lines:
(§1)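 After 72 h at 37 °C on 384-well plates pre-spotted with 528 oncology drugs at five doses (1-10,000 nM), parental and doxycycline-inducible MDCK cells were assessed; both lines had been given 10 ng/mL doxycycline in the medium before seeding at 2000 cells/well. Viability was taken from CellTiter-Glo luminescence scaled per plate to vehicle and positive controls, and drug sensitivity scores were derived from dose-response fits in the Breeze pipeline.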

For experiment [2], the system named is MDCK p60AmotL2-inducible + doxycycline (p60AmotL2 expressing). As to conditions: doxycycline: 10 ng/mL; 72 h. In a few lines: as §1
The subject of experiment [3] is MDCK wild-type - doxycycline. As to conditions: doxycycline: none; 72 h. The method, boiled down: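 Viability of parental MDCK cells cultured without doxycycline was measured by CellTiter-Glo luminescence and scaled per plate between vehicle and positive controls. The cells had been exposed for 72 h to an oncology library of 528 drugs at five doses (1-10,000 nM). Drug sensitivity scores were calculated from dose-response curve fits in the Breeze pipeline.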

Consider `CC(C)c1cc(C(=O)N2Cc3ccc(CN4CCN(C)CC4)cc3C2)c(O)cc1O` [Onalespib], for which the results for the drug sensitivity score in experiment [1], in experiment [2] and in experiment [3] were 18.2, 18.8 and 16.2, respectively.
For the molecule `COC[C@H](NC(=O)c1cnc(C)s1)C(=O)N[C@@H](COC)C(=O)N[C@@H](Cc1ccccc1)C(=O)[C@@]1(C)CO1` [Oprozomib], the results for the drug sensitivity score in experiment [1], in experiment [2] and in experiment [3] were 17.6, 17.4 and 17.9, respectively.
For the molecule `CNC(=O)c1ccc2cc([C@@]3(O)CCn4cncc43)ccc2c1` [Orteronel], the drug sensitivity score in experiment [1], in experiment [2] and in experiment [3] was 0 each time.
`C=CC(=O)Nc1cc(Nc2nccc(-c3cn(C)c4ccccc34)n2)c(OC)cc1N(C)CCN(C)C` [Osimertinib]: the drug sensitivity score was found to be 6.4 in experiment [1], 10.9 in experiment [2] and 4.6 in experiment [3].
For `O=C(O)C(=O)O.[NH-][C@@H]1CCCC[C@H]1[NH-].[Pt+2]` [Oxaliplatin], the values for the drug sensitivity score in experiment [1], in experiment [2] and in experiment [3] were 10.2, 12.3 and 8.1, respectively.
The corresponding values for `C=CCc1cccc(/C=N/NC(=O)CN2CCN(Cc3ccccc3)CC2)c1O` [PAC-1] are 4.2, 4 and 2.6.
Take `O=C(Nc1cccnc1)N1CCC(Cc2cccc(Oc3ccc(C(F)(F)F)cn3)c2)CC1` [PF-3845]: the figures for the drug sensitivity score in experiment [1], in experiment [2] and in experiment [3] were 0, 0.8 and 0, respectively.
Turning to `COc1ccccc1S(=O)(=O)Nc1ccc2c(c1)CN(C)C(=O)N2` [PFI-1], the drug sensitivity score in experiment [1] was 2.4; in experiment [2], 5.3; in experiment [3] it was 0.3.
For `CN1CCN(c2cc(C(=O)Nc3ccc4c(c3)-c3c(c(C(N)=O)nn3-c3ccc(F)cc3)CC4)c(Cl)cn2)CC1` [PHA 408], in that order: 0, 0.2 and 0.
With `O=C(Nc1cc(Cl)cc2c1[nH]c1cnccc12)c1cccnc1` [PS-1145], the drug sensitivity score in experiment [1], in experiment [2] and in experiment [3] was 0 in each case.
As for `COc1cc(Br)c(Nc2nc(-c3c(C)nc4ncccn34)cs2)c(Br)c1` [PTC-209], the drug sensitivity score in experiment [1] came to 11.4; in experiment [2], 13.8; in experiment [3] it was 9.6.
The corresponding values for `CC(=O)O[C@H]1C(=O)[C@@]2(C)[C@H]([C@H](OC(=O)c3ccccc3)[C@]3(O)C[C@H](OC(=O)[C@H](O)[C@@H](NC(=O)c4ccccc4)c4ccccc4)C(C)=C1C3(C)C)[C@]1(OC(C)=O)CO[C@@H]1C[C@@H]2O` [Paclitaxel] are 19.4, 21.8 and 15.8.
For the molecule `C1=N/C2=N/c3ccc(OCCN4CCCC4)c(c3)COC/C=C/COCc3cccc(c3)C(=C1)N2` [Pacritinib], the values for the drug sensitivity score in experiment [1], in experiment [2] and in experiment [3] were 9.3, 10 and 10.1, respectively.
As to `CC(=O)c1c(C)c2cnc(Nc3ccc(N4CCNCC4)cn3)nc2n(C2CCCC2)c1=O` [Palbociclib], the values for the drug sensitivity score in experiment [1], in experiment [2] and in experiment [3] were 0.9, 4.3 and 0.9, respectively.
As to `COc1ccc(COc2cc3oc(=O)c4cc(C(C)O)ccc4c3cc2OC)cc1` (configuration not stated) [Palomid-529], the drug sensitivity score in experiment [1] turned out to be 0; in experiment [2], 0.1; in experiment [3] it was 0.
Regarding `Cc1[nH]c2ccccc2c1CCNCc1ccc(/C=C/C(=O)NO)cc1` [Panobinostat], the drug sensitivity score in experiment [1] was found to be 12.5; in experiment [2] it was 15; in experiment [3], 15.2.
Consider `Cc1ccc(Nc2nccc(N(C)c3ccc4c(C)n(C)nc4c3)n2)cc1S(N)(=O)=O` [Pazopanib], for which the drug sensitivity score in experiment [1], in experiment [2] and in experiment [3] was 0 in each case.
As to `Nc1nc2[nH]cc(CCc3ccc(C(=O)N[C@@H](CCC(=O)O)C(=O)O)cc3)c2c(=O)[nH]1` [Pemetrexed], the drug sensitivity score is 5.3 in experiment [1], 7.1 in experiment [2] and 5.5 in experiment [3].
In the case of `OC[C@H]1O[C@@H](n2cnc3c2N=CNC[C@H]3O)C[C@@H]1O` [Pentostatin], the drug sensitivity score in experiment [1], in experiment [2] and in experiment [3] was 0 each time.
For the molecule `CCCCCCCCCCCCCCCCCCOP(=O)([O-])OC1CC[N+](C)(C)CC1` [Perifosine], the drug sensitivity score in experiment [1], in experiment [2] and in experiment [3] was 0 each time.
Turning to `NS(=O)(=O)OC[C@@H]1C[C@@H](n2ccc3c(N[C@H]4CCc5ccccc54)ncnc32)C[C@@H]1O` [Pevonedistat], the drug sensitivity score amounted to 9.7 in experiment [1], 11.7 in experiment [2] and 9 in experiment [3].
For `FC(F)(F)c1ccc(CNc2ccc(Cc3c[nH]c4ncc(Cl)cc34)cn2)cn1` [Pexidartinib], in that order: 0, 0.1 and 0.
Take `CS(=O)(=O)N1CCN(Cc2cc3nc(-c4cccc5[nH]ncc45)nc(N4CCOCC4)c3s2)CC1` [Pictilisib]: the figures for the drug sensitivity score in experiment [1], in experiment [2] and in experiment [3] were 8.4, 14.4 and 6.9, respectively.
As for `CC[C@@H]1C(=O)OC[C@@H]1Cc1cncn1C` [Pilocarpine], the drug sensitivity score in experiment [1], in experiment [2] and in experiment [3] was 0 each time.
In the case of `CC(C)N(C[C@H]1O[C@@H](n2cnc3c(N)ncnc32)[C@H](O)[C@@H]1O)[C@H]1C[C@@H](CCc2nc3cc(C(C)(C)C)ccc3[nH]2)C1` [Pinometostat], the drug sensitivity score in experiment [1], in experiment [2] and in experiment [3] was 0 each time.
As for `Cc1ccc(=O)n(-c2ccccc2)c1` [Pirfenidone], the drug sensitivity score in experiment [1], in experiment [2] and in experiment [3] was 0 throughout.
With `NCCNc1ccc(NCCN)c2c1C(=O)c1ccncc1C2=O` [Pixantrone], the drug sensitivity score in experiment [1], in experiment [2] and in experiment [3] was 0 in each case.
In the case of `c1cc(CN2CCCNCCNCCCNCC2)ccc1CN1CCCNCCNCCCNCC1` [Plerixafor], the drug sensitivity score turned out to be 0 in experiment [1], 0.1 in experiment [2] and 0 in experiment [3].
With `CO[C@H](C(=O)[C@@H](O)[C@@H](C)O)[C@@H]1Cc2cc3cc(O[C@H]4C[C@@H](O[C@@H]5C[C@@H](O)[C@H](O)[C@@H](C)O5)[C@H](O)[C@@H](C)O4)c(C)c(O)c3c(O)c2C(=O)[C@H]1O[C@H]1C[C@@H](O[C@@H]2C[C@@H](O)[C@@H](O[C@@H]3C[C@](C)(O)[C@H](O)[C@@H](C)O3)[C@@H](C)O2)[C@H](O)[C@@H](C)O1` [Plicamycin], the drug sensitivity score is 11.3 in experiment [1], 14.1 in experiment [2] and 10.4 in experiment [3].
